Laboratory results from paper PMC11992225, “Antibacterial compounds against non-growing and intracellular bacteria” (npj Antimicrobials and Resistance, 2025).
≈ marks a conversion by molar mass, not a printed value. Like-named read-outs stand apart in the source and are kept apart here.

Key:
[1] = test system: E. coli CFT073 (UPEC); experiment: MIC, standard microdilution assay, growing UPEC; format: cell-based, Escherichia coli
Outline: (§1)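 Broth microdilution was used throughout. UPEC, P. aeruginosa and S. aureus were tested in CA-MHB buffered with 40 mM HEPES (pH 7.4); UPEC was additionally tested in LPM with 30 mM MES (pH 5.5). S. flexneri was grown in TSB. All determinations were run in triplicate.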

[2] = test system: P. aeruginosa DSM1117; experiment: MIC, standard microdilution assay, growing P. aeruginosa; format: cell-based, Pseudomonas aeruginosa
Outline: as §1

[3] = test system: S. flexneri 5a M90T; experiment: MIC in tryptic soy broth, S. flexneri; format: cell-based, Shigella flexneri; settings: for MIC: Shigella flexneri, 5AM90T, read-out: MIC (μM) TSB
Outline: as §1

[4] = test system: non-growing P. aeruginosa DSM1117; experiment: Dilution-regrowth assay (OD600, start-growth-time) on stationary-phase P. aeruginosa; format: cell-based, Pseudomonas aeruginosa; settings: for Regrowth, OD600 at 6h or 8h after dilution into drug-free medium: average; for Regrowth: OD600 after dilution into drug-free medium (mean): OD600 at 6h or 8h
Description: To determine the spectrum of activity of the compounds that were effective against non-growing UPEC, we further assessed their efficacy against the well-characterized Gram-negative and Gram-positive reference strains P. aeruginosa DSM1117 and S. aureus DSM2569, respectively. The cultures were grown and treated for 24 h in 1:4 CA-MHB (pH 7.4). […].
For better characterization of the compounds causing the strongest regrowth delay, we performed the regrowth step of the dilution-regrowth experiments on a plate reader, measuring the OD600 at 20-min intervals for over 20 h instead of using an endpoint measurement. This approach allowed us to capture the time when cultures reached a threshold optical density (start-growth-time, SGT[15]).
Overnight cultures of UPEC, P. aeruginosa and S. aureus were grown in test tubes containing 3 ml of LB broth (~16 h), then diluted 1:100 into either 1:4 diluted CA-MHB medium buffered with 40 mM HEPES (pH 7.4) or, in case of UPEC, into LPM medium[25] supplemented with 49 µM MgCl2 and buffered with 30 mM MES (pH 5.5). The cultures were incubated for 24 h in non-baffled Erlenmeyer flasks at 37 °C with shaking at 200 rpm.
For P. aeruginosa and S. aureus, dose–response analysis was conducted in 96-well plates with a 200 μl assay volume, following the procedure used for screening assay validation experiments. Aliquots of the 39 compounds active against non-growing UPEC were obtained from SelleckChem and MedChem Express. Stock solutions were prepared and stored according to the manufacturers’ instructions, then diluted in 10% DMSO before use. Cultures were incubated for 24 h in 1:4 diluted CA-MHB medium under the same conditions used for UPEC cultivation. In preliminary experiments, each compound was tested at a concentration of 20 μM in the dilution-regrowth assay with 4 technical replicates. Regrowth was monitored using a microplate reader at 37 °C with continuous shaking, and OD600 was recorded every 20 min. The time at which OD600 exceeded the threshold of 0.12 was recorded as the Start_Growth-Time.
The statistical analysis of all data, as well as EC50 and IC50 determination, was conducted using GraphPad Prism 10.2.3. Statistical significance of the drug effects was assessed using a one-way ANOVA followed by Dunnett’s test, comparing each treatment to the drug-free control. Statistical significance of the differences in chemical characteristics between the hit compounds and the Prestwick library was assessed using a Mann–Whitney test. Statistical significance was set at P ≤ 0.05. A five-parameter logistic equation was used for asymmetric sigmoidal curve fitting and for EC50 and IC50 determination. The Venn diagram in Fig. 1F was prepared using BioVenn web application. Characteristics of the chemical and physical properties of Prestwick library compounds were obtained from Supplementary Table S1 from reference. Characteristics of the hit compounds not included in the Prestwick library were retrieved from the PubChem database.

[5] = test system: intracellular S. flexneri 5a M90T in TC7 cells; experiment: microbe, parasite or virus in culture; format: cell-based, Shigella flexneri
[6] = TC7 cells infected with GFP-expressing S. flexneri, 14 h treatment
[7] = Escherichia coli, E. coli, LPM pH 5.5, read-out: MIC
[8] = Escherichia coli, E. coli, pH 7.4, CA-MHB, read-out: MIC (μM) CA-MHB
[9] = Pseudomonas aeruginosa, DSM1117, P. aeruginosa, 1:4 diluted CA-MHB pH 7.4, read-out: MIC (μM) 1:4 CA-MHB
[10] = Pseudomonas aeruginosa, DSM1117, P. aeruginosa, CA-MHB pH 7.4, read-out: MIC (μM) CA-MHB
[11] = Pseudomonas aeruginosa, DSM1117, P. aeruginosa, regrowth delay of non-growing bacteria, 1:4 CA-MHB pH 7.4, 24 h treatment, OD600 8 h after dilution, read-out: EC50
[12] = P. aeruginosa, concentration 0.1
[13] = P. aeruginosa, concentration 0.5
[14] = P. aeruginosa, concentration 2.5
[15] = P. aeruginosa, concentration 10
[16] = Escherichia coli, E. coli, pH 7.4, 1:4 diluted CA-MHB, read-out: MIC (μM) 1:4 CA-MHB

SMILES	Fluorescence intensity (RFU), Mean, 2 x MIC [5, 6] [RFU]	Fluorescence intensity (RFU), Mean, 4 x MIC [5, 6] [RFU]	Fluorescence intensity (RFU), Mean, 8 x MIC [5, 6] [RFU]	Fluorescence intensity (RFU), Mean, 16 x MIC [5, 6] [RFU]	Fluorescence intensity (RFU), Mean, 32 x MIC [5, 6] [RFU]	Fluorescence intensity (RFU), Mean, MIC [5, 6] [RFU]	MIC [1, 7] [µM]	MIC [1, 8] [µM]	MIC [2, 9] [µM]	MIC [2, 10] [µM]	MIC [3] [µM]	EC50 [4, 11] [nM]	IC50 ([5]; Shigella flexneri, TC7, 14 h) [nM]	MIC [1, 16] [µM]	further results
N[C@@H]1CN(c2c(F)cc3c(=O)c(C(=O)O)cn([C@@H]4C[C@@H]4F)c3c2Cl)CC12CC2 [Sitafloxacin]	4007.53	3422.83	3200.25	2414.89	2083.61	5217.75									MIC ([1]; E. coli, LPM pH 5.5, read-out: MIC): 0.5 µM (≈ 0.205 µg/mL); MIC ([1]; E. coli, pH 7.4, CA-MHB, read-out: MIC (μM) CA-MHB): 0.025 µM (≈ 0.0102 µg/mL); MIC ([2]; P. aeruginosa, 1:4 diluted CA-MHB pH 7.4, read-out: MIC (μM) 1:4 CA-MHB): 0.5 µM (≈ 0.205 µg/mL); MIC ([2]; P. aeruginosa, CA-MHB pH 7.4, read-out: MIC (μM) CA-MHB): 0.5 µM (≈ 0.205 µg/mL); MIC (μM) TSB ([3]; S. flexneri, extracellular bacteria in TSB): 0.01562 µM (≈ 0.0064 µg/mL); EC50 ([4]; P. aeruginosa, regrowth delay of non-growing bacteria, 1:4 CA-MHB pH 7.4, 24 h treatment, OD600 8 h after dilution, read-out: EC50): 54 nM; IC50 ([5]; intracellular S. flexneri in TC7 cells, GFP fluorescence after 14 h treatment, read-out: IC50): 25 nM
CN1CCN(c2cc3c(cc2F)c(=O)c(C(=O)O)cn3-c2ccc(F)cc2)CC1 [Difloxacin]	3233.81	2824.97	2319.67	1827.36	1634.92	3866.17	0.0625 (≈ 0.025 µg/mL)	0.25 (≈ 0.0998 µg/mL)	8 (≈ 3.2 µg/mL)	8 (≈ 3.2 µg/mL)	0.25 (≈ 0.0998 µg/mL)	2360	183		Fluorescence intensity (RFU), Mean, 0.25 x MIC ([5]; TC7 cells infected with GFP-expressing S. flexneri, 14 h treatment, 0.25 x MIC): 8915.25 RFU; Fluorescence intensity (RFU), Mean, 0.5 x MIC ([5]; TC7 cells infected with GFP-expressing S. flexneri, 14 h treatment, 0.5 x MIC): 8126.42 RFU
CO[C@@]12[C@H](COC(N)=O)C3=C(C(=O)C(C)=C(N)C3=O)N1C[C@@H]1N[C@@H]12 [Mitomycin C]	2991.58	2579.31	2274.5	1986.92	1617.58	3708.94					1 (≈ 0.334 µg/mL)		451		MIC ([1]; Escherichia coli, pH 5.5): 0.5 µM (≈ 0.167 µg/mL); MIC ([1]; Escherichia coli, pH 7.4, read-out: MIC (μM) CA-MHB): 2 µM (≈ 0.669 µg/mL); MIC ([2]; Pseudomonas aeruginosa, DSM1117, pH 7.4, read-out: MIC (μM) 1:4 CA-MHB): 10 µM (≈ 3.34 µg/mL); MIC ([2]; Pseudomonas aeruginosa, DSM1117, pH 7.4, read-out: MIC (μM) CA-MHB): 10 µM (≈ 3.34 µg/mL); Regrowth, OD600 at 6h or 8h after dilution into drug-free medium (average) ([4]; P. aeruginosa, drug concentration 0.1): 0.203; Regrowth, OD600 at 6h or 8h after dilution into drug-free medium (average) ([4]; P. aeruginosa, drug concentration 0.5): 0.116; Regrowth, OD600 at 6h or 8h after dilution into drug-free medium (average) ([4]; P. aeruginosa, drug concentration 2.5): 0.094; Regrowth, OD600 at 6h or 8h after dilution into drug-free medium (average) ([4]; P. aeruginosa, drug concentration 10): 0.095; EC50 ([4]; Pseudomonas aeruginosa, DSM1117, pH 7.4): 28 nM
CO/N=C1\CN(c2nc3c(cc2F)c(=O)c(C(=O)O)cn3C2CC2)CC1CN (centres unmarked) [Gemifloxacin]	4953.61	3661.36	3159.39	3090.56	2706.11	6688.44	0.25 (≈ 0.0973 µg/mL)	0.025 (≈ 0.00973 µg/mL)	2 (≈ 0.779 µg/mL)	1 (≈ 0.389 µg/mL)	0.0156 (≈ 0.00608 µg/mL)	165	22		Regrowth, OD600 at 6h or 8h after dilution into drug-free medium [4, 12]: 0.486; Regrowth, OD600 at 6h or 8h after dilution into drug-free medium [4, 13]: 0.138; Regrowth, OD600 at 6h or 8h after dilution into drug-free medium [4, 14]: 0.091; Regrowth, OD600 at 6h or 8h after dilution into drug-free medium [4, 15]: 0.090
C=C[C@]1(C)C[C@@H](OC(=O)CSC(C)(C)CNC(=O)[C@H](N)C(C)C)[C@]2(C)[C@H](C)CC[C@]3(CCC(=O)[C@H]32)[C@@H](C)[C@@H]1O [Valnemulin]								20 (≈ 11.3 µg/mL)	> 160	> 160	16 (≈ 9.04 µg/mL)	324		10 (≈ 5.65 µg/mL)	MIC (μM) CA-MHB +PAβN ([1]; E. coli, pH 7.4, CA-MHB with 10 μg/ml efflux pump inhibitor PaβN): 10 µM (≈ 5.65 µg/mL)
CO[C@H]1/C=C/O[C@@]2(C)Oc3c(C)c(O)c4c(c3C2=O)C2=NC3(CCN(CC(C)C)CC3)NC2=C(NC(=O)/C(C)=C\C=C\[C@H](C)[C@H](O)[C@@H](C)[C@@H](O)[C@@H](C)[C@H](OC(C)=O)[C@@H]1C)C4=O [Rifabutin]							2 (≈ 1.69 µg/mL)	8 (≈ 6.78 µg/mL)	10 (≈ 8.47 µg/mL)	40 (≈ 33.9 µg/mL)	32 (≈ 27.1 µg/mL)	942		0.625 (≈ 0.529 µg/mL)	Regrowth: OD600 after dilution into drug-free medium (mean) [4, 12]: 0.637; Regrowth: OD600 after dilution into drug-free medium (mean) [4, 13]: 0.579; Regrowth: OD600 after dilution into drug-free medium (mean) [4, 14]: 0.109; Regrowth: OD600 after dilution into drug-free medium (mean) [4, 15]: 0.093
